Test results as given in patent publication US20260083698A1, “Synergistic Stimulation of Mucociliary Clearance to Treat Mucus Obstruction in Cystic Fibrosis and Other Muco-Obstructive Disorders” (The Board of Trustees of the Leland Stanford Junior …, priority 2022, published 2026).

Tests used:
pig tracheal mucosa = experiment: Short circuit current (Isc) and conductance, Ussing chamber, pig; settings: WT pigs; 30 min single agonist then 30 min combined
Description: (§1) FIG. 4. Combined agonists inhibit sodium absorption and stimulate anion secretion by surface epithelia. (A) Cartoon of two electrogenic, ion transport pathways across airway apical epithelium: anion secretion increases surface fluid, Na+ absorption decreases surface fluid. The two pathways have opposite effects on fluid depth, but additive effects on short circuit current (Isc) because of their opposite valence and transport directions. (B) Raw trace of Isc across pig tracheal epithelium using Chart 4 software. After reaching a stable, unstimulated Isc (here, >2 h post-mounting), 10 μM forskolin, 0.3 μM carbachol, 10 μM benzamil, 20 μM benzopyrimido-pyrrolo-oxazinedione (BPO-27) and 200 μM niflumic acid were sequentially added at times shown. (C, D) Pig tracheal mucosa: averaged Δ Isc plots over time in response to (C) forskolin alone followed by forskolin+carbachol and (D) reversed order of agonist addition. (E & F) Ferret tracheal mucosa: averaged A Isc plots with same protocol as for pigs. Pig traces (C, D) are based on 10-12 experiments with tissues from 6 to 7 pigs. Ferret traces (E, F) are from 7 experiments with tissues from 5 ferrets.
Combined agonists stimulate epithelial surface anion secretion and inhibit Na^+ absorption. The surface epithelia also modify ASL. FIG. 4A is a cartoon of the main ion flows controlling ASL depth: anion-mediated fluid secretion increases, and Na^+-mediated fluid absorption decreases ASL depth. It was hypothesized that the combined agonists increase ASL depth and thus MCCV by stimulating secretion and inhibiting absorption (see also FIG. 6). […] With no counterbalancing absorption ASL depth is predicted to increase (dotted gold line in FIG. 6A) unless MCCV increases.
Inhibiting Na+ absorption would increase net fluid accumulation on the surface. […]
(§2) Electrophysiology. […] Total tissue conductance was calculated by applying Ohm's law to the Isc deflection resulting from a 1 mV pulse across the tissues every 20 s during the experiment. […]

ferret tracheal mucosa = experiment: Short circuit current (Isc), Ussing chamber, ferret; settings: WT ferrets; 30 min single agonist then 30 min combined
Description: as §1, with “ferrets. […]” for “ferrets.”
as §2

CF ferret tracheas = experiment: Mucociliary clearance velocity (MCCV) in ex vivo CF ferret tracheas; settings: for MCCV: 10 μM forskolin, 0.3 μM carbachol, average of last 20 min of single drug period, 10 to 80 min after adding the combined agonists; for CF ferret MCCV response compared to WT ferrets: CF vs WT ferret (WT from ref 16)
Method: Synergistic increases of MCCV in CF ferrets and WT pigs. […] To determine if synergistic increases of MCCV could be produced in CF ferret tracheas, tracheas from 7 transgenic adult CF ferrets of mixed genotype were tested (see “Methods” section). […] SR, synergy response by the combined agonists: 19.95±4.12, (P=0.006 SR vs. Sum). Airway tissue procurement. CF ferret tissues. […] These ferrets were raised on the CFTR modulator VX770. […] Two […]/KO ferret tracheas were used for the tracheal, single gland mucus secretion rate assay. […] All isolated CF ferret tracheal trims (2-3 cm in length) were placed in DMEM culture medium immediately after euthanasia and shipped from the University of Iowa via overnight priority express. MCCV measurement. Details are in the previous reports (16,59,60). Briefly, each whole length ferret or piglet trachea, or a CF tracheal trim, was cut open along the mid-dorsal line and mounted mucosal side up onto a Sylgard elastomer platform. For pig experiments, tracheas from newborn piglets were used because tracheas from adult pigs that had been subjected to acute experiments, our source for submucosal gland experiment, had erratic MCC velocities due to epithelial damage secondary to intubation. […] Drugs were added by bath replacement with pre-warmed bath+drug(s).

WT ferret tracheas = settings: WT ferrets, obtained previously (16); cited from earlier work
human nasal mucosa = experiment: Ciliary beat frequency (CBF) measurement; settings: 37° C.; for CBF: human nasal mucosa, KRB, 0.3 μM carbachol, 10 μM forskolin
Method: Ciliary beat frequency was measured in human nasal mucosa from 4 subjects. CBF (in Hz) of unstimulated tissues at 37° C. in Krebs buffer (KRB) was 10.46±0.95. […] (Note that in this experiment any effects on ASL by the agonists were diluted because the ciliated tissue was studied while submerged in Krebs solution.) […] It was tested to see if CBF might display synergistic increases to the combined agonists. CBF (in Hz) of unstimulated human nasal cells in KRB (Krebs buffer solution) was 6.79±1.69 at 25° C. and 10.46±0.95 at 37° C. (4 subjects, P=0.01) (see “Methods” section). […] Thus, while increases in CBF will contribute to increases in MCCV, they are unlikely to account for the synergistic increase in MCCV seen with the combined agonists (see “Discussion” section). Human tissues. Human nasal mucosal tissues were obtained from nasal biopsies during endoscopic sinus surgeries at Yonsei University Hospital. All methods using human tissues were carried out in accordance with relevant guidelines and regulations of Yonsei University, Seoul, South Korea. All experimental protocols were approved by Yonsei University and informed consent was obtained from all participants prior to the study (Yonsei University-IRB protocol#: 4-2016-1153). Ciliary beat frequency measurement. Ciliary beat frequency was measured using human nasal mucosa in the lab where ferret and pig tracheal mucosa was not readily accessible. Human nasal mucosa from endoscopic nasal biopsies was further dissected under a microscope and placed in a chamber controlled for temperature and pH control. Perfused Krebs bicarbonate buffer was maintained at 37° C. and pH 7.4. Cilia were visualized with a Zeiss microscope equipped with 40× or 60× objectives (Munich, Germany) using differential interference contrast (DIC) optics. […] Images were obtained for 10 s at each condition and experiments were performed in the following sequence: (1) unstimulated CBF at room temperature; (2) unstimulated at 37° C.; (3) CBF at 37° C. with 0.3 μM carbachol; (4) wash for 10 min; […] Each condition was maintained for at least 10 min. […] All recordings at each condition were made at three different areas of the epithelia, and the analyzed CBF was averaged for each experiment. To analyze captured images and calculate CBF, an in-house coding with a MATLAB software (MA, USA) was used.

SMILES	ΔIsc, summary plots (pig tracheal mucosa)	ΔIsc, summary plots (ferret tracheal mucosa)	MCCV (CF ferret tracheas; CF ferret tracheas) [mm/min]	effect on MCCV (CF ferret tracheas; CF ferret tracheas, single agonist, 30 min)	CF ferret MCCV response compared to WT ferrets (CF ferret tracheas) [%]	averaged MCCV of T10-30 to 0.3 μM carbachol in ferret (E) relative to ferrets (A) and (C) (CF ferret tracheas; individual CF ferrets, FIG. 7)	MCCV (WT ferret tracheas) [mm/min]	increase in CBF vs unstimulated (human nasal mucosa) [%]	CBF (human nasal mucosa) [Hz]
C[N+](C)(C)CCOC(N)=O [carbachol]	decreased directly or after a transient increase	decreased directly or after a transient increase	3.29±2.08	only a small increase	~40	less than 5%	8.24±0.82	5.3	11.04±1.3
C=C[C@@]1(C)CC(=O)[C@]2(O)[C@@]3(C)[C@@H](O)CCC(C)(C)[C@@H]3[C@H](O)[C@H](OC(C)=O)[C@@]2(C)O1 [forskolin]			0.18±0.09		~0			9.8	12.06±1.22
